{
  "source": "paper PMC5061366",
  "about": "“Metagenomic Analysis of the Sponge Discodermia Reveals the Production of the Cyanobacterial Natural Product Kasumigamide by ‘Entotheonella’” (PLoS ONE, 2016)",
  "conditions_in_all_cases": "1 mM substrate, 1 uM protein, 0.5 mM ATP, 10 mM MgCl2, 32 mM hydroxylamine, 1 mM DTT, pH 7.5, room temperature, 10 min",
  "key": {"MakasC-A2": {"biological_target": "T1, MakasC-A2 (Microcystis aeruginosa, UniProt A0A1L7NR40)", "T1 construct": "C-A2-PCP tridomain of MakasC (MakasC-CA2P); N-terminal His6 (pCold II), E. coli BLR(DE3)", "assay": "malachite green phosphate assay of adenylation (hydroxylamine, pyrophosphatase)", "type": "biochemical"}, "MakasC-A1": {"biological_target": "MakasC-A1 (Microcystis aeruginosa, UniProt A0A1L7NR40)"}, "MakasB-A2": {"biological_target": "T2, MakasB-A2 (Microcystis aeruginosa, UniProt A0A1L7NR43)", "T2 construct": "single adenylation domain A2 of MakasB; N-terminal His6-MBP fusion (NhisMBP-pET28b(+)), E. coli BLR(DE3)", "assay": "malachite green phosphate assay of adenylation (hydroxylamine, pyrophosphatase)", "type": "biochemical"}, "MakasA-A1": {"biological_target": "T3, MakasA-A1 (Microcystis aeruginosa, UniProt A0A1L7NR41)", "T3 construct": "single adenylation domain A1 of MakasA; N-terminal His6 (pCold II), E. coli BLR(DE3)", "T3 sequence (A0A1L7NR41 1-560 limits assumed)": "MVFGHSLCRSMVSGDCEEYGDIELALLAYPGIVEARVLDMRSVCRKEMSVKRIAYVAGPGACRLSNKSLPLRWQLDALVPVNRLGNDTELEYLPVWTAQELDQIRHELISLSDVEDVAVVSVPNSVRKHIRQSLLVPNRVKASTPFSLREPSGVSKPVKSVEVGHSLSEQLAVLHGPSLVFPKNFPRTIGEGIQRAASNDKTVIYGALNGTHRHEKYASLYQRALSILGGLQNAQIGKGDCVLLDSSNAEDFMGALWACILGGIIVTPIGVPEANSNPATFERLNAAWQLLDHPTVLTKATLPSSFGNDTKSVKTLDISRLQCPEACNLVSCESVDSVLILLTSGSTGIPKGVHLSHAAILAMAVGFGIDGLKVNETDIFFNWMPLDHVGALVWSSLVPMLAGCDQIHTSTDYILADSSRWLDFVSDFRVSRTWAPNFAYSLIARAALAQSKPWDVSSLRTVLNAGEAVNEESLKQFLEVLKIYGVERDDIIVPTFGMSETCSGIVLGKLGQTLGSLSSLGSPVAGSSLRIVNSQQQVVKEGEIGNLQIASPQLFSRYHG", "assay": "malachite green phosphate assay of adenylation (hydroxylamine, pyrophosphatase)", "type": "biochemical"}, "MakasB-A1": {"biological_target": "T4, MakasB-A1 (Microcystis aeruginosa, UniProt A0A1L7NR43)", "T4 construct": "C-A1-PCP tridomain of MakasB (MakasB-CA1P); N-terminal His6 (pCold II), E. coli BLR(DE3)", "assay": "malachite green phosphate assay of adenylation (hydroxylamine, pyrophosphatase)", "type": "biochemical"}},
  "data": [
    {"smiles": "NC(C(=O)O)C(O)c1ccccc1", "note": "(racemic) [DL-threo-3-phenylserine]", "values": [
      {"measurement": "relative adenylation activity", "setting": "MakasC-A2", "result": "MakasC-A2 showed higher selectivity to DL-threo-3-phenylserine (DL-threo-PS) than L-Phe"}
    ]},
    {"smiles": "N=C(N)NCCC[C@H](N)C(=O)O", "note": "[L-Arg]", "values": [
      {"measurement": "relative adenylation activity", "setting": "MakasC-A1", "result": "exhibited catalytic activities selective for PP, β-Ala, L-Trp, and L-Arg, respectively"}
    ]},
    {"smiles": "N[C@@H](Cc1c[nH]c2ccccc12)C(=O)O", "note": "[L-Trp]", "values": [
      {"measurement": "relative adenylation activity", "setting": "MakasB-A2", "result": "exhibited catalytic activities selective for PP, β-Ala, L-Trp, and L-Arg, respectively"}
    ]},
    {"smiles": "O=C(O)C(=O)Cc1ccccc1", "note": "[phenyl pyruvic acid]", "values": [
      {"measurement": "relative adenylation activity", "setting": "MakasA-A1", "result": "exhibited catalytic activities selective for PP, β-Ala, L-Trp, and L-Arg, respectively"}
    ]},
    {"smiles": "NCCC(=O)O", "note": "[β-Ala]", "values": [
      {"measurement": "relative adenylation activity", "setting": "MakasB-A1", "result": "exhibited catalytic activities selective for PP, β-Ala, L-Trp, and L-Arg, respectively"}
    ]}
  ]
}
